Results on 65 compounds are retold here after US20260083851A1 (AVILAR THERAPEUTICS, INC., priority 2022, published 2026).

Broadly, the Kd is the constant that tells how readily two partners part at equilibrium.

Molecules are shown by their SMILES. Where only a bound is given, the exact number is not on record here.

The first experiment concerns the target T1, ASGP receptor (biotinylated ASGPR) (Homo sapiens, UniProt P07306).
T1 construct: biotin (biotinylated)
T1 sequence (P07306 1-291): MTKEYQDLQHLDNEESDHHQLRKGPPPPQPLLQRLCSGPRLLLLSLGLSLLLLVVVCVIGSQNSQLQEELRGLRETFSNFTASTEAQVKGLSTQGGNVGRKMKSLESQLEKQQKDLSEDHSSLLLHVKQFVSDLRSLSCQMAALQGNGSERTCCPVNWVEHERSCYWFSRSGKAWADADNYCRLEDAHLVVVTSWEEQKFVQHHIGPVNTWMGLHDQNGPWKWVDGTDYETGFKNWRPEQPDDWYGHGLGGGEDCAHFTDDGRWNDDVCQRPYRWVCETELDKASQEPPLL
The experiment is classed as binding. Conditions: SPR, Biacore 8K, 25° C.; Table 1C; read-out: ASGPR KD. On the technique in general: In SPR one partner is held on a chip, and binding of the other changes the refractive index at the surface.
Consider `O[C@@H]1[C@@H](Nc2cccc(C(F)(F)F)n2)[C@H]2OC[C@](COc3cccnn3)(O2)[C@@H]1O` [A295], for which the equilibrium dissociation constant (Kd) is less than 10 µM.
For the compound `O[C@@H]1[C@@H](Nc2cccc(C(F)(F)F)n2)[C@H]2OC[C@](COc3cnccn3)(O2)[C@@H]1O` [A296], the Kd was less than 10 µM.
For `O=C(O)COCCOCC(=O)NC[C@H]1OC[C@H](Oc2cccc(C(F)(F)F)n2)[C@@H](O)[C@H]1O` [A298], the equilibrium dissociation constant (Kd) is less than 10 µM.
On the same count and under the same terms, the value for `O=C(c1ccc(Cl)cc1)[C@H]1OC[C@H](Oc2cccc(C(F)(F)F)n2)[C@@H](O)[C@H]1O` [A299] was less than 10 µM; that for `O[C@@H]1[C@H](O)[C@@H](Oc2cccc(C(F)(F)F)n2)CO[C@@H]1COc1cccnc1` [A301] was less than 10 µM.
For the compound `CN1CC2CN(C[C@H]3OC[C@H](Oc4cccc(C(F)(F)F)n4)[C@@H](O)[C@H]3O)CCN2C1=O` (some centres unmarked) [A302], the Kd is less than 10 µM.
On the same count and under the same terms, as for `C[C@H]1O[C@@H](c2ccc(N3CCNCC3)cc2)[C@H](Oc2cccc(C(F)(F)F)n2)[C@@H](O)[C@H]1O` [A303], the figure is less than 10 µM; as for `O[C@@H]1[C@H](O)[C@@H](Oc2cccc(C(F)(F)F)n2)CO[C@@H]1CSc1ccccc1` [A304], less than 10 µM.
The same measure, in the same setting: as for `O=C(O)COCCOCC(=O)NC[C@@]12CO[C@@H](O1)[C@H](Nc1cncc(C(F)(F)F)n1)[C@@H](O)[C@H]2O` [A305], the figure is less than 10 µM; as for `O[C@@H]1[C@@H](Oc2cccc(C(F)(F)F)n2)COC(C(F)(F)c2ccc(Cl)cc2)[C@@H]1O` (some centres unmarked) [A306], less than 10 µM.
Consider `O[C@@H]1[C@H](O)[C@@H](Oc2cccc(C(F)(F)F)n2)CO[C@@H]1CSc1ccccn1` [A307], for which the Kd is less than 10 µM.
`O[C@@H]1[C@@H](Oc2cccc(C(F)(F)F)n2)COC(C(F)c2ccc(Cl)cc2)[C@@H]1O` (some centres unmarked) [A308]: the equilibrium dissociation constant (Kd) was less than 10 µM.
As to `O=C(O)c1cnc(OC[C@H]2OC[C@H](Nc3cccc(C(F)(F)F)n3)[C@@H](O)[C@H]2O)cn1` [A309], the dissociation constant Kd is less than 10 µM.
For `O=S(=O)(C[C@H]1OC[C@H](Oc2cccc(C(F)(F)F)n2)[C@@H](O)[C@H]1O)c1ccccc1` [A310], the Kd is less than 10 µM.
For `[O-][S+](C[C@H]1OC[C@H](Oc2cccc(C(F)(F)F)n2)[C@@H](O)[C@H]1O)c1ccccc1` (some centres unmarked) [A311], the Kd was less than 10 µM.
On the same count and under the same terms, the value for `[O-][n+]1c(O[C@H]2CO[C@H](CSc3ccccc3)[C@H](O)[C@@H]2O)cccc1C(F)(F)F` [A312] was less than 10 µM; that for `CC[C@]1(COc2ccc(C(=O)O)nn2)O[C@H](O)[C@H](NC(=O)C(F)(F)F)[C@@H](O)[C@H]1O` [A313] was less than 10 µM; that for `CC[C@]1(COc2ccc(C(=O)O)nn2)O[C@H](O)[C@H](Nc2cccc(C(F)(F)F)n2)[C@@H](O)[C@H]1O` [A314] was less than 10 µM.
For `COC(=O)c1ccc(OC[C@H]2O[C@H](C)[C@H](O)[C@H](O)[C@H]2Oc2cccc(C(F)(F)F)n2)nn1` [A315], the Kd is less than 10 µM.
Still for that read-out and setting: as for `CC[C@H]1O[C@H](C)[C@H](O)[C@H](O)[C@H]1Oc1cccc(C(F)(F)F)n1` [A316], the figure is less than 10 µM.
Consider `O=C(O)c1ccc(OC[C@H]2OC[C@H](Nc3cccc(C(F)(F)F)n3)[C@@H](O)[C@H]2O)nn1` [A317], for which the Kd was less than 10 µM.
On the same count and under the same terms, the value for `C[C@H]1O[C@H](CCCO)[C@H](Oc2cccc(C(F)(F)F)n2)[C@@H](O)[C@H]1O` [A318] was less than 10 µM.
Still for that read-out and setting: the value for `C[C@H]1O[C@H](C#CCOc2cccnn2)[C@H](Oc2cccc(C(F)(F)F)n2)[C@@H](O)[C@H]1O` [A319] was less than 10 µM; that for `COC(=O)c1ccc(C#C[C@H]2O[C@H](C)[C@H](O)[C@H](O)[C@H]2Oc2cccc(C(F)(F)F)n2)nn1` [A321] was less than 10 µM; that for `C[C@H]1O[C@H](C#CCOc2ccc(C(=O)O)nn2)[C@H](Oc2cccc(C(F)(F)F)n2)[C@@H](O)[C@H]1O` [A322] was less than 10 µM.
`Nc1ccc(OC[C@H]2OC[C@H](Oc3cccc(C(F)(F)F)n3)[C@@H](O)[C@H]2O)nn1` [A323]: the Kd was less than 10 µM.
For `O=C(O)c1ccc(OC[C@H]2OC[C@H](Nc3nccc(C(F)(F)F)n3)[C@@H](O)[C@H]2O)nn1` [A325], the Kd is less than 10 µM.
Take `NCCOCCOCC(=O)NC[C@H]1OC[C@H](Oc2cccc(C(F)(F)F)n2)[C@@H](O)[C@H]1O` [A326]: the Kd is less than 10 µM.
The same measure, in the same setting: as for `OC[C@H]1O[C@H](c2ccccc2)[C@H](Oc2cccc(C(F)(F)F)n2)[C@@H](O)[C@H]1O` [A329], the figure is less than 10 µM; as for `O[C@@H]1[C@H](O)[C@@H](Oc2cccc(C(F)(F)F)n2)[C@@H](c2ccccc2)O[C@@H]1C(F)F` [A330], less than 10 µM.
On to `C[C@H]1O[C@H](C#Cc2ccc(C(=O)O)nn2)[C@H](Oc2cccc(C(F)(F)F)n2)[C@@H](O)[C@H]1O` [A331], for which the Kd was less than 10 µM.
`C[C@H]1O[C@H](c2cc[nH]n2)[C@H](Oc2cccc(C(F)(F)F)n2)[C@@H](O)[C@H]1O` [A332]: the Kd is less than 10 µM.
Still for that read-out and setting: as for `COC(=O)/C=C/[C@H]1O[C@H](C)[C@H](O)[C@H](O)[C@H]1Oc1cccc(C(F)(F)F)n1` [A333], the figure is less than 10 µM; as for `CC(=O)[C@H]1O[C@H](C)[C@H](O)[C@H](O)[C@H]1Oc1cccc(C(F)(F)F)n1` [A334], less than 10 µM; as for `C[C@H]1O[C@@H](c2ncnc3c2ncn3Cc2ccccc2)[C@H](Oc2cccc(C(F)(F)F)n2)[C@@H](O)[C@H]1O` [A335], less than 10 µM.
The same measure, in the same setting: as for `C[C@H]1O[C@@H](c2ccccn2)[C@H](Oc2cccc(C(F)(F)F)n2)[C@@H](O)[C@H]1O` [A336], the figure is less than 10 µM; as for `C[C@H]1O[C@@H](c2ncncc2F)[C@H](Oc2cccc(C(F)(F)F)n2)[C@@H](O)[C@H]1O` [A337], less than 10 µM.
Same read-out and setting: the value for `C[C@H]1O[C@H](c2ncncc2F)[C@H](Oc2cccc(C(F)(F)F)n2)[C@@H](O)[C@H]1O` [A338] was less than 10 µM.
Take `CC(O)[C@H]1O[C@H](C)[C@H](O)[C@H](O)[C@H]1Oc1cccc(C(F)(F)F)n1` (some centres unmarked) [A339]: the dissociation constant Kd is less than 10 µM.
The same measure, in the same setting: the value for `C[C@H]1O[C@H](c2ccc3c(c2)CCC3)[C@H](Oc2cccc(C(F)(F)F)n2)[C@@H](O)[C@H]1O` [A340] was less than 10 µM; that for `C[C@H]1O[C@H](c2ccc3c(c2)CNC3)[C@H](Oc2cccc(C(F)(F)F)n2)[C@@H](O)[C@H]1O` [A341] was less than 10 µM.
Still for that read-out and setting: the value for `C[C@H]1O[C@H](c2cccc3ccccc23)[C@H](Oc2cccc(C(F)(F)F)n2)[C@@H](O)[C@H]1O` [A342] was less than 10 µM; that for `C[C@H]1O[C@H](c2ccc3ccccc3n2)[C@H](Oc2cccc(C(F)(F)F)n2)[C@@H](O)[C@H]1O` [A343] was less than 10 µM.
Consider `C[C@H]1O[C@@H](c2ccc3ccccc3n2)[C@H](Oc2cccc(C(F)(F)F)n2)[C@@H](O)[C@H]1O` [A344], for which the Kd is less than 10 µM.
The same measure, in the same setting: the value for `O[C@@H]1[C@@H](Oc2cccc(C(F)(F)F)n2)CSC[C@@H]1O` [A345] was less than 10 µM.

The experiment is the same for the next values; noted with them: SPR, Biacore 8K, 25° C.; Table 1D, numeric bound; read-out: ASGPR KD.
As for `O=C(OCc1ccccc1)N1C[C@H](O)[C@H](O)[C@@H]([S@+]([O-])c2cccc(C(F)(F)F)n2)C1` [A355], the Kd was more than 30 µM.
The same measure, in the same setting: the value for `O=C(OCc1ccccc1)N1C[C@H](O)[C@H](O)[C@@H](S(=O)(=O)c2cccc(C(F)(F)F)n2)C1` [A356] was more than 30 µM.
Same read-out and setting: as for `O=C(OCc1ccccc1)N1C[C@H](O)[C@H](O)[C@@H](S(=O)(=O)c2cncc(C(F)(F)F)n2)C1` [A358], the figure is more than 30 µM; as for `CN1C[C@H](Nc2ccc(C(F)(F)F)cn2)[C@@H](O)[C@@H](O)C1` [A368], more than 30 µM.

Still in this experiment, the particulars now being: SPR, Biacore 8K, 25° C.; Table 1D; read-out: ASGPR KD.
Turning to `C[C@H]1O[C@H](c2cc(-c3ccccc3)no2)[C@H](Oc2cccc(C(F)(F)F)n2)[C@@H](O)[C@H]1O` [A346], the Kd is less than 10 µM.
On the same count and under the same terms, as for `Cc1nnc(N2C[C@H](Oc3cccc(C(F)(F)F)n3)[C@@H](O)[C@@H](O)C2)s1` [A351], the figure is less than 10 µM; as for `Cc1nnc(N2C[C@H](Oc3cccc(C(F)(F)F)n3)[C@@H](O)[C@@H](O)C2)o1` [A352], less than 10 µM; as for `O[C@@H]1[C@@H](Oc2cccc(C(F)(F)F)n2)CN(c2noc(-c3ccccc3)n2)C[C@@H]1O` [A353], less than 10 µM.
On to `O=C(OCc1ccccc1)N1C[C@H](O)[C@H](O)[C@@H]([S@@+]([O-])c2cccc(C(F)(F)F)n2)C1` [A354], for which the Kd lay in the range of 10 to 100 µM.
As for `CC(=O)NNC(=O)N1C[C@H](Oc2cccc(C(F)(F)F)n2)[C@@H](O)[C@@H](O)C1` [A357], the Kd is less than 10 µM.
Take `O[C@@H]1[C@@H](Oc2cccc(C(F)(F)F)n2)CN(c2ncon2)C[C@@H]1O` [A359]: the Kd is less than 10 µM.
Still for that read-out and setting: as for `CCOC(=O)c1nc(N2C[C@H](Oc3cccc(C(F)(F)F)n3)[C@@H](O)[C@@H](O)C2)no1` [A360], the figure is less than 10 µM.
As to `O=C(OCc1ccccc1)N1C[C@H](Nc2cncc(C(F)(F)F)n2)[C@@H](O)[C@@H](O)C1` [A361], the Kd was less than 10 µM.
Same read-out and setting: the value for `O[C@@H]1[C@@H](Nc2cncc(C(F)(F)F)n2)CNC[C@@H]1O` [A362] was less than 10 µM.
Still for that read-out and setting: as for `CN1C[C@H](Nc2cncc(C(F)(F)F)n2)[C@@H](O)[C@@H](O)C1` [A363], the figure is less than 10 µM; as for `O=C(c1ccc(Cc2ccccc2)cc1)N1C[C@H](Nc2cncc(C(F)(F)F)n2)[C@@H](O)[C@@H](O)C1` [A364], less than 10 µM.
Same read-out and setting: as for `CN(c1cncc(C(F)(F)F)n1)[C@H]1CNC[C@H](O)[C@@H]1O` [A365], the figure is less than 10 µM.
With `CCN1C[C@H](O)[C@H](O)[C@@H](N(C)c2cncc(C(F)(F)F)n2)C1` [A366], the Kd is less than 10 µM.
As to `O[C@@H]1[C@@H](Nc2cncc(C(F)(F)F)n2)CN(CC(F)(F)F)C[C@@H]1O` [A367], the equilibrium dissociation constant (Kd) was less than 10 µM.
The same measure, in the same setting: the value for `O=C(OCc1ccccc1)N1C[C@H](Nc2nccc(C(F)(F)F)n2)[C@@H](O)[C@@H](O)C1` [A369] was less than 10 µM.
